# Data from PMC9748900, “Unconventional isoquinoline-based SERMs elicit fulvestrant-like transcriptional programs in ER+ breast cancer cells” (NPJ Breast Cancer, 2022).
# “Also recorded” adds a separate entry of the source. Read-outs that look alike come from different tables or passages of the source.
# What was measured:
# [1] = tested on: patients with advanced disease with prior hormone therapy; settings: compared to standard of care ref 6, cited from earlier work
# [2] = tested on: Ishikawa endometrial cells; experiment: Alkaline phosphatase (AP) assay in Ishikawa cells; type: cell-based, human; settings: 1 nM E2 or 1 μM compound, 72 h, absorbance at 405 nm, mean + std. dev., n = 3-9
# Excerpt: SERM enhancement of ERα accumulation in breast cancer cells correlates with uterotrophic activities[22],[30]. Despite the inclusion of side arms from known SERDs, most T6Is appeared SERM-like in breast cancer cells as they increased ERα levels. To measure the SERM-agonist activities of the T6Is, we employed an AP activity assay in Ishikawa endometrial cells[22],[32],[40]. […] Many T6Is show unexpected AP activities in these cells. […] Therefore, we would expect these SERMs to show a greater induction of AP (Supplementary Fig. 5). […] This difference was significant (p = 0.004) compared to 4OHT, which measured 0.68 ± 0.12 absorbance units. In most studies of SERM-agonist activities, AP assays are combined with increases in uterine wet-weight in vivo[22],[41],[42].
# AP assays were performed as described. Briefly, 15,000 Ishikawa cells were seeded into 96-well plates then placed in serum-starved medium for 48–72 h. Cells were treated for three days with veh, hormone, SERM, or SERD. The media was aspirated and the cells were frozen at −80 °C for at least 24 h. Cells were thawed then incubated with p-nitrophenyl phosphate (ThermoFisher) chromogenic AP substrate. After 60 min at 40 °C, absorbance was read at 405 nm on a BioTek Cytation 5 plate reader.
# [3] = tested on: gene expression in T47D breast cancer cells; experiment: qPCR gene expression in T47D cells; type: cell-based; settings: 1 μM + 1 nM E2, 16 h
# [4] = tested on: gene expression in MCF7:WS8 breast cancer cells; experiment: qPCR gene expression in MCF7:WS8 cells; settings: MCF7:WS8
# ERα [5] = molecular target: T1, ERα (Homo sapiens, UniProt P03372); experiment: ERE transcriptional reporter gene assay in MCF7 cells; type: cell-based; design: endogenous in cells; host or cells: MCF7 cells with 3x-ERE-GFP reporter; settings: MCF7, 1 nM E2
# T1 sequence (P03372 1-595): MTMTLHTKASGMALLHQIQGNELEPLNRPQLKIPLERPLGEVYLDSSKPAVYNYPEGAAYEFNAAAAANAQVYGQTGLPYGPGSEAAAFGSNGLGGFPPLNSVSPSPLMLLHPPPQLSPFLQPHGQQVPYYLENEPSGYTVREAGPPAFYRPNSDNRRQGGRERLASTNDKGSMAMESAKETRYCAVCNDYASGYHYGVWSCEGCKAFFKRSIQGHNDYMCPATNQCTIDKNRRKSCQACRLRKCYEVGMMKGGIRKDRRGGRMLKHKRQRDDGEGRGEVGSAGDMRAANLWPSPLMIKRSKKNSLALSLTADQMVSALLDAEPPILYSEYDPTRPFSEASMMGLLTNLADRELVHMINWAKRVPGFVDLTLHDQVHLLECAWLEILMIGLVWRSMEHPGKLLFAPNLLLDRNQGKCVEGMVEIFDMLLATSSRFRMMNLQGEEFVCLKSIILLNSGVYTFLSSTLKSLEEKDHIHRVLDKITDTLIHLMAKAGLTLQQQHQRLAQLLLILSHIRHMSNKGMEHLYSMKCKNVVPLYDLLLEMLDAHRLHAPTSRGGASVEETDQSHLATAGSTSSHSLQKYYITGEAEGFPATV
# Method: A cyclopropyl group was used in place of RAD1901’s ethylamine. […] We initially synthesized 4 derivatives comprised of different pharmacophores on the analogous steroidal A ring (Fig. 2d) and used an ERE reporter gene assay in MCF7 breast cancer cells to measure their transcriptional inhibitory activities.
# This assay was performed in accordance with a previous report. MCF7 breast cancer cells with a 3x-estrogen response element-green fluorescent protein (GFP) reporter gene construct under a CMV promoter were plated in 96-well dishes at 3000 cells per well. Cells were cultured for 48 h in stripped media that included charcoal stripped fetal bovine serum (FBS). Cells were treated with increasing concentrations of antiestrogen (5 pm to 1 µM) for 24 h. Subsequently, percent GFP-positive cells were imaged using a BioTek Cytation 5 live cell imager. All assays were performed three times with three technical replicates each.
# halo-ERα = molecular target: T2, halo-ERα (Homo sapiens, UniProt P03372); experiment: Live-cell halo-ERα accumulation assay in T47D cells; type: cell-based; settings: 1 μM, 24 h
# T2 construct: expressed in transfected cells; host or cells: T47D cells, doxycycline-inducible halo-ERα
# T2 sequence (P03372 1-595): T1 sequence (P03372 1-595)
# Excerpt: (§1) SERMs and SERDs differentially affect ERα cellular lifetime/accumulation, which correlates with tissue-specific partial agonistic activities. SERMs increase WT ERα lifetime and are partial agonists in the bone and uterine epithelium by maintaining AF-1-dependent transcriptional coactivator recruitment. SERDs induce rapid WT ERα degradation and are pure antagonists[14],[17],[19],[22],[33]. […] We used an in-cell Western approach to measure how a subset of T6Is affected ERα levels in MCF7:WS8 breast cancer cells. […] A live cell halo-tagged ERα assay was then used to measure the impact of an expanded set of T6Is on receptor accumulation in T47D breast cancer cells after 24 h treatment. […] The difference between T6I-14 and 4OHT was not statistically significant in this assay. […] The IC50 values generally trended with observed differences in transcriptional IC50 (Fig. 2), while the effect at maximum dose varied greatly.
# This assay was performed in accordance with a previous report. T47D breast cancer cells with a halo-ERα under a doxycycline (dox) control were grown in 96-well dishes starting at 3000 cells per well. Cells were placed in serum-starved media for 48–72 h then simultaneously treated with 1 µg/mL dox, and 1 µM Halo-TMR direct (Promega, G2991) alongside 5 pm to 1 µM compound for 24 h. […]
# ERα-SRC3 binding = molecular target: T3, ERα-SRC3 binding (Homo sapiens, UniProt P03372); experiment: NanoBiT ERα-SRC3 assay in HEK293T cells; type: cell-based; settings: 1 μM antagonist + 1 nM E2, 4 h
# T3 construct: expressed in transfected cells; host or cells: HEK293T, transient co-transfection of pcDNA3.1 plasmids (gift of D. P. McDonnell)
# T3 sequence (P03372 1-595): T1 sequence (P03372 1-595)
# Method: SERMs and SERDs favor an ERα LBD protein conformation that occludes transcriptional coactivator binding. We used nanoBiT to study how the first set of T6I molecules inhibited ERα and steroid receptor coactivator-3 (SRC3) binding in HEK293T cells. […] Plasmids for smBiT-ERα and lgBiT-SRC3 were kindly donated by Dr. Donald P. McDonnell. Plasmids were co-transfected into HEK293T cells and placed in serum-starved medium for 48 h.
# HEK293T cells were grown in 96-well clear bottom, white-walled plates to around 70% confluence. PCDNA 3.1 plasmids containing N-terminally tagged smBiT ERα or lgBiT SRC3 nuclear recognition domain (NRD) were kindly donated by Dr. Donald P. McDonnell. These plasmids were co-transfected with a total of 0.1 µg smBiT ERα and 0.1 µg LgBiT SRC3 NRD using Turbofectin 8.0 at a 3:1 ratio. After 24 h cells were placed in serum-starved media and allowed to acclimate for an additional 48–72 h. […] Data shown are the average of three independent replicates.
# ERα [6] = molecular target: T1, ERα; experiment: In-cell Western of ERα levels in T47D cells; type: cell-based; design: In-cell Western of endogenous ERα levels normalized to cell count in T47D breast cancer cells; endogenous in cells; host or cells: T47D breast cancer cells; settings: 1 μM
# Method: An in-cell Western assay was used to measure the effect of the purified T6I-29 enantiomers on the accumulation of ERα in T47D breast cancer cells at 1 μM dose.
# In-cell Western analysis was performed in a similar manner as previously described. Briefly, T47D or MCF7:WS8 breast cancer cells were grown in blackout 96-well plates starting at 3000 cells per well. After 24 h, cells were placed in serum-starved media and allowed to acclimate for 48–72 h. Cells were treated with hormone, SERM, or SERD alongside vehicle control for 24 h. Only interior wells were used to avoid edge effects. Cells were fixed with 4% formaldehyde and permeabilized with 0.1% Triton X-100. Plates were blocked with Intercept blocking buffer (LI-COR). Santa Cruz F10 anti-ERα antibody (sc-8002) was used as the primary at 1:200-500 dilution. Secondary antibody was a goat anti-mouse IgG 800 IRDye antibody (926-32210) from LI-COR. Cells were also treated with CellTag700 (926-41090) to control for differences in cell count between wells. All data were collected on a LI-COR Odyssey DLx and analyzed using Emperia Studio. Each experiment was comprised of three replicates.
# T47D breast cancer cells = experiment: Cellular proliferation (label-free cell count), T47D; type: cell-based; settings: 0.1 and 1 μM, 1 nM E2
# Method: (§2) In addition, we used a crystal violet assay to measure the effect of T6I-14-1 on MCF7 viability.
# MCF7, MCF7:WS:8, Y537S ESR1 MCF7 and T47D breast cancer cell lines were grown in 96-well dishes at a starting cell count of 1000 cells per well. […] Cells were grown in a BioSpa attached to a BioTek Cytation 5 and were automatically counted every twelve hours for 7–10 days or until the E2-only wells reached confluence. Media was replaced every 4 days and drug was maintained in each media change. Each study was repeated three times with three technical replicates each.
# MCF7 breast cancer cells = experiment: Crystal violet cellular viability assay; type: cell-based; settings: MCF7, 1 to 1000 nM, 1 nM E2, 7 days
# Method: as §2
# MCF7 breast cancer cells were placed in 24-well dishes at 15,000 cells per well. After 24 h, they were placed in serum-starved media for 48 to 72 h. […] After treatment, cells were stained with 0.4% crystal violet in 50% methanol for 30 min. Cells were washed with PBS to remove excess dye. 500 µL of methanol was then added to each well to dissolve the dye and placed on a rocker for 30 min at room temperature and the absorbance at 570 was recorded.
# ERα [7] = molecular target: T1, ERα; experiment: In-cell Western of ERα levels in MCF7:WS8 cells; type: cell-based; design: endogenous in cells; settings: MCF7:WS8, 1 μM, 24 h, compared to 4OHT
# Excerpt: as §1
# In-cell Western analysis was performed in a similar manner as previously described. Briefly, T47D or MCF7:WS8 breast cancer cells were grown in blackout 96-well plates starting at 3000 cells per well. After 24 h, cells were placed in serum-starved media and allowed to acclimate for 48–72 h. Cells were treated with hormone, SERM, or SERD alongside vehicle control for 24 h. […] All data were collected on a LI-COR Odyssey DLx and analyzed using Emperia Studio. […]
compound,measurement,setting,value
"CCNCCc1ccc(CN(CC)c2cc(OC)ccc2[C@@H]2CCc3cc(O)ccc3C2)cc1 [RAD1901, elacestrant]",reduced risk of disease progression or death,[1]; all patients,30%
same,reduced risk of disease progression or death,"[1]; patients with ESR1 mutations, including the Y537S",45%
same,AP1 Induction,[2],0.28 + 0.08
same,CDK1 mRNA,[3],slightly upregulated CDK1
same,RPS6KL1 mRNA,[3],only slightly enriched
same,CDK1 mRNA,[4],downregulated its expression
CCN1CC(Oc2ccc(C3c4ccc(O)cc4CC4(CC4)N3C(=O)c3ccccc3)cc2)C1 (stereo not shown) [T6I-1],anti-transcriptional activity (in words),ERα [5],ineffective anti-transcriptional agent
same,AP1 Induction,[2],0.30 + 0.07
same,halo-ERα accumulation at maximum dose,halo-ERα,SERD-like decrease to ERα levels; also recorded: weak ERα-degrading activities
same,inhibition of ERα-SRC3 binding (luminescence),ERα-SRC3 binding,the least
CCCN1CCC(COc2ccc(C3c4ccc(O)cc4CC4(CC4)N3C(=O)c3ccccc3)cc2)C1 (stereo not shown) [T6I-14-1],ERα levels by in-cell Western,ERα [6],enhanced ERα levels past 4OHT
same,AP1 Induction,[2],0.55 + 0.09
same,cell count after 7 days (fold-change normalized to vehicle),T47D breast cancer cells,significantly more effective (p = 0.01) than ICI
same,cellular viability (crystal violet),MCF7 breast cancer cells,reduced MCF7 cellular viability across all doses compared to 4OHT and ICI
same,inhibition of ERα-SRC3 binding (luminescence),ERα-SRC3 binding,among the most potent; also recorded: significant reduction compared to both 4OHT (p = 0.03) and E2 (p = 0.004)
CCCN1CCC(COc2ccc(C3c4ccc(O)cc4CC4(CC4)N3C(=O)c3ccccc3)cc2)C1 (stereo not shown) [T6I-14],ERα levels by in-cell Western,ERα [7],significant enhancement
